# Reference: patent publication US9695155B2, “Herbicidal substituted pyrimidinyloxy benzene compounds” (E. I. DU PONT DE NEMOURS AND COMPANY, priority 2013, dated 2017)
# Tests used:
# pigweed = experiment: Test A preemergence; format: in vivo, Amaranthus retroflexus; conditions: for Pigweed plant response rating: 500 g ai/ha
# Summary of the method: (§1)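 Visual 0–100 rating (100 = complete control) taken about 10 d post-treatment relative to untreated checks. Preemergence: directed soil spray on sown loam/sand pots. Postemergence: seedlings 2–10 cm, 1–2 leaf. Non-phytotoxic solvent formulation with surfactant.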
# kochia [1] = experiment: Test A postemergence; format: in vivo, Kochia scoparia; conditions: 0 to 100 scale, 0 no effect, 100 complete control
# Summary of the method: as §1
# Heteranthera limosa = experiment: Test B flooded paddy test; format: in vivo; conditions: Flood, 250 g ai/ha, 0 to 100 scale where 0 is no effect and 100 is complete control
# Summary of the method: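 Post-emergence paddy-water application at the 2-leaf stage, with 3 cm flood kept for the whole test. Response was judged visually relative to controls after 13 to 15 greenhouse days, 0 indicating no effect and 100 complete control.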
# corn [2] = experiment: Test C postemergence; format: in vivo, Zea mays
# Summary of the method: (§2)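 Rated visually on 0–100 (100 = complete control) after 13–15 days under glass. Treatments went onto freshly seeded loam/sand soil or onto emerged plants at the 1- to 4-leaf stage, using a surfactant-containing solvent formulation.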
# kochia [3] = experiment: Test A preemergence; format: in vivo, Kochia scoparia
# Summary of the method: as §1
# giant foxtail = experiment: Test A postemergence; format: in vivo, Setaria faberii
# Summary of the method: as §1
# Italian ryegrass = experiment: Test C postemergence; format: in vivo, Lolium multiflorum
# Summary of the method: as §2
# wheat = experiment: Test A postemergence; format: in vivo, Triticum aestivum
# Summary of the method: as §1
# blackgrass = experiment: Test A postemergence; format: in vivo, Alopecurus myosuroides; conditions: 0 to 100 scale, 0 no effect, 100 complete control
# Summary of the method: as §1
# large (Lg) crabgrass = experiment: Test A postemergence; format: in vivo, Digitaria sanguinalis
# Summary of the method: as §1
# corn [4] = experiment: Test A preemergence; format: in vivo, Zea mays; conditions: for Corn plant response rating (0 to 100 scale) / Plant response rating, Corn: 125 g ai/ha; for Corn plant response rating: 500 g ai/ha
# Summary of the method: as §1
# [5] = 31 g ai/ha, postemergence, visual rating, scale 0 to 100 (0 no effect, 100 complete control), 13 to 15 days
# [6] = 31 g ai/ha, 0 to 100 scale where 0 is no effect and 100 is complete control, visual, approximately 10 days
# [7] = 16 g ai/ha, postemergence, 0 is no effect, 100 is complete control
# [8] = 125 g ai/ha, postemergence, visual rating, scale 0 to 100 (0 no effect, 100 complete control)
# [9] = Postemergence, 62 g ai/ha, scale 0 to 100 (0 no effect, 100 complete control), 13 to 15 days
# [10] = 31 g ai/ha, 0 to 100 scale, 0 no effect, 100 complete control
# [11] = 125 g ai/ha, 0 to 100 scale, 0 no effect, 100 complete control
# [12] = 125 g ai/ha, 0 to 100 scale where 0 is no effect and 100 is complete control
# [13] = 500 g ai/ha, 0 to 100 scale where 0 is no effect and 100 is complete control
# [14] = 0 to 100 scale where 0 is no effect and 100 is complete control
# [15] = 500 g ai/ha, 0 to 100 scale, 0 no effect, 100 complete control
# [16] = 0 to 100 scale, 0 no effect, 100 complete control, approx. 10 days
# [17] = Postemergence, 31 g ai/ha, scale 0 to 100 (0 no effect, 100 complete control), 13 to 15 days
# [18] = Postemergence, 62 g ai/ha, scale 0 to 100 (0 no effect, 100 complete control)
# [19] = 8 g ai/ha, postemergence, 0 is no effect, 100 is complete control
Structure (SMILES),"Ryegrass, Italian plant response rating (Italian ryegrass; [5])",Pigweed plant response rating (0 to 100 scale) (pigweed; 125 g ai/ha),"Plant response rating, Ducksalad (Heteranthera limosa)","Plant response rating (0 to 100), Corn (corn [2]; [7])",Corn plant response rating (corn [2]; [5]),"Plant response rating, Corn (corn [2]; [8])","Plant response rating, Corn (corn [2]; [9])","Plant response rating (0 to 100), Ryegrass, Italian (Italian ryegrass; [7])","Plant response rating, Ryegrass, Italian (Italian ryegrass; [8])","Plant response rating, Ryegrass, Italian (Italian ryegrass; [9])","Crabgrass, Large plant response rating (large (Lg) crabgrass; [12])","Plant response rating, Crabgrass, Large (large (Lg) crabgrass; [13])",Corn plant response rating (0 to 100 scale) (corn [4]),Corn plant response rating (corn [4]; [14]),Pigweed plant response rating (pigweed; [14]),"Foxtail, Giant plant response rating (giant foxtail; [12])","Plant response rating, Foxtail, Giant (giant foxtail; [13])",Wheat plant response rating (wheat; [12]),"Plant response rating, Wheat (wheat; [13])",other results
"Clc1cnc(Oc2ccccc2-n2cc(C3CC3)nn2)nc1 [Compound 160, 5-chloro-2-[2-(4-cyclopropyl-1H-1,2,3-triazol-1-yl)phenoxy]pyrimidine]",0,–,–,–,–,–,–,–,–,–,–,–,–,–,–,–,–,–,–,"pest or weed control at 1000 g/ha (pigweed; Amaranthus retroflexus, pre-emergence, 240 h, 1000 g ai/ha, 0 to 100 scale, 0 no effect, 100 complete control, approx. 10 days, read-out: Pigweed plant response rating): 100%; Plant response rating, Kochia (kochia [1]; 1000 g ai/ha): 100; pest or weed control at 250 g/ha (Heteranthera limosa; Heteranthera limosa, read-out: Plant response rating, Ducksalad): 80%; plant injury at 16 g/ha (corn [2]; Zea mays, post-emergence, 16 g ai/ha, postemergence, 0 is no effect, 100 is complete control, read-out: Plant response rating (0 to 100), Corn): 0%; plant injury at 31 g/ha (corn [2]; Zea mays, post-emergence, 31 g ai/ha, postemergence, visual rating, scale 0 to 100 (0 no effect, 100 complete control), 13 to 15 days, read-out: Corn plant response rating): 5%; Corn plant response rating (crop injury, 0 = no effect, 100 = complete kill) at 125 g/ha (corn [2]; Zea mays, post-emergence, 125 g ai/ha, postemergence, visual rating, scale 0 to 100 (0 no effect, 100 complete control)): 5%; Corn plant response rating (crop injury, 0 = no effect, 100 = complete kill) at 62 g/ha (corn [2]; Zea mays, post-emergence, Postemergence, 62 g ai/ha, scale 0 to 100 (0 no effect, 100 complete control)): 5%; Kochia plant response rating (kochia [3]; 1000 g ai/ha, 0 to 100 scale, 0 no effect, 100 complete control, approx. 10 days): 100; pest or weed control at 1000 g/ha (giant foxtail; Setaria faberi, post-emergence, 240 h, 1000 g ai/ha, 0 to 100 scale, 0 no effect, 100 complete control, read-out: Plant response rating Foxtail, Giant): 100%; pest or weed control at 16 g/ha (Italian ryegrass; Lolium multiflorum, post-emergence, 16 g ai/ha, postemergence, 0 is no effect, 100 is complete control, read-out: Plant response rating (0 to 100), Ryegrass, Italian): 0%; pest or weed control at 125 g/ha (Italian ryegrass; Lolium multiflorum, post-emergence, 125 g ai/ha, postemergence, visual rating, scale 0 to 100 (0 no effect, 100 complete control), read-out: Plant response rating, Ryegrass, Italian): 5%; pest or weed control at 62 g/ha (Italian ryegrass; Lolium multiflorum, post-emergence, Postemergence, 62 g ai/ha, scale 0 to 100 (0 no effect, 100 complete control), read-out: Plant response rating, Ryegrass, Italian): 0%; plant injury at 1000 g/ha (wheat; Triticum aestivum, post-emergence, 240 h, 1000 g ai/ha, 0 to 100 scale, 0 no effect, 100 complete control, read-out: Plant response rating Wheat): 100%; Plant response rating, Blackgrass (blackgrass; 1000 g ai/ha): 100"
FCc1cccc(Oc2ncc(Cl)cn2)c1-n1cc(I)cn1 [Compound 245],0,90,75,5,5,5,5,0,5,0,–,–,–,–,–,–,–,–,–,"Plant response rating, Pigweed (pigweed; [6]): 90; Plant response rating, Kochia (kochia [1]; 31 g ai/ha): 60; Plant response rating, Kochia (kochia [1]; 125 g ai/ha): 100; Plant response rating, Kochia (kochia [3]; [6]): 0; Kochia plant response rating (0 to 100 scale) (kochia [3]; 125 g ai/ha): 30; Plant response rating, Foxtail, Giant (giant foxtail; [10]): 0; Plant response rating, Foxtail, Giant (giant foxtail; [11]): 80; Plant response rating, Wheat (wheat; [10]): 20; Plant response rating, Wheat (wheat; [11]): 40; Plant response rating, Blackgrass (blackgrass; 31 g ai/ha): 30; Plant response rating, Blackgrass (blackgrass; 125 g ai/ha): 70"
Clc1cnc(Oc2cccc(Br)c2-n2cc(Cl)cn2)nc1 [Compound 221],0,100,0,0,5,10,10,0,5,5,60,100,0,0,100,50,90,0,30,–
Fc1cnc(Oc2ccccc2-n2cc(C(F)F)cn2)nc1 [Compound 228],0,0,75,0,0,5,0,0,10,0,40,90,0,40,0,50,90,0,70,–
FC(F)c1cnn(-c2c(Cl)cccc2Oc2ncc(Cl)cn2)c1 [Compound 192],0,100,90,0,5,5,5,0,5,5,50,90,0,50,100,70,90,0,50,–
N#Cc1cccc(Oc2ncc(Br)cn2)c1-n1cc(Br)cn1 [Compound 57],–,–,60,–,–,–,–,–,–,–,–,–,–,–,–,–,–,–,–,"Plant response rating, Crabgrass, Large (large (Lg) crabgrass; [12]): 90; Plant response rating, Crabgrass, Large (large (Lg) crabgrass; [15]): 100; Plant response rating, Corn (corn [4]; [14]): 0; Corn plant response rating (corn [4]; [16]): 70; Plant response rating, Pigweed (pigweed; [12]): 100; Pigweed plant response rating (pigweed; [16]): 100; Plant response rating (0 to 100), Corn (corn [2]; 125 g ai/ha, postemergence): 20; Plant response rating (0 to 100), Corn (corn [2]; 250 g ai/ha, postemergence): 20; Plant response rating, Corn (corn [2]; [17]): 10; Plant response rating, Corn (corn [2]; [18]): 15; Plant response rating, Foxtail, Giant (giant foxtail; [12]): 80; Plant response rating, Foxtail, Giant (giant foxtail; [15]): 100; Plant response rating (0 to 100), Ryegrass, Italian (Italian ryegrass; 125 g ai/ha, postemergence): 10; Plant response rating (0 to 100), Ryegrass, Italian (Italian ryegrass; 250 g ai/ha, postemergence): 15; Plant response rating, Ryegrass, Italian (Italian ryegrass; [17]): 0; Plant response rating, Ryegrass, Italian (Italian ryegrass; [18]): 5; Plant response rating, Wheat (wheat; [12]): 0; Plant response rating, Wheat (wheat; [15]): 30"
O=Cc1cccc(Oc2ncc(I)cn2)c1-n1cc(Br)cn1 [Compound 172],0,0,0,0,0,–,–,0,–,–,20,30,–,0,50,0,20,0,0,"Plant response rating, Corn (corn [4]; [14]): 0; Plant response rating (0 to 100), Corn (corn [2]; [19]): 0; Plant response rating, Corn (corn [2]; [18]): 0; Plant response rating (0 to 100), Ryegrass, Italian (Italian ryegrass; [19]): 0; Plant response rating, Ryegrass, Italian (Italian ryegrass; [18]): 5"
